Measured values reported in patent US20200289425A1, “CARBON DOT LIPOSOMES AND USES THEREOF” (National Taiwan University, priority 2017, published 2020).
pIC50: −log10 of the molar value.

Key:
[1] = Degradation of drugs, standing in water for 48 hrs (HPLC or ICP MS); type: physicochemical; settings: standing for 48 hrs
Procedure: In this example, the degradation of drug molecules encapsulated in the drug containing vesicles and that of free drugs were investigated. To this purpose, the drug containing vesicles of examples 1.2 or 1.3 or the free drug were placed in water, and let standing for 48 hrs, then the amounts of each drugs in the water were measured by HPLC or ICP MS.

[2] = free drug; cited from earlier work
lung cancer cells A549 = test: Cancer cell growth, Alamar Blue assay, A549; type: cell-based; settings: A549, 48 hr culture
Description: (§1) Cell lines and cell culture. A549, Hela, MCF-7, Huh7, C2BBe1, BxPC-3, A375.S2, CCRF-CEM, TrampC1 and NIH 3T3 cells were obtained from the American Type Culture Collection (ATCC; Manassas, Va., USA). A549, Hela, Huh7, A375.S2, TrampC1, and NIH 3T3 cells were maintained in Dulbecco's minimal essential medium (DMEM) supplemented with 1.5 g/L sodium bicarbonate,10% fetal bovine serum (FBS), 1.0% antibiotic-antimycotic, L-glutamine (2.0×10^−3 M), and 1.0% nonessential amino acids. MCF-7, BxPC-3 and CCRF-CEM cells were cultured in Roswell Park Memorial Institute (RPMI) medium supplemented with 10% FBS, and 1.0% antibiotic-antimycotic. C2BBe1 cells were grown in DMEM 1.5 g/L sodium bicarbonate, 1.0% antibiotic-antimycotic, L-glutamine (2.0×10^−3 M), and 1.0% nonessential amino acids, 10 mg/L human holo-transferrin, and 10% fetal bovine serum. The cell number and viability of the cells were determined by the trypan blue exclusion method and Alamar Blue assay, respectively.
(§2) The assay is designed to measure quantitatively the proliferation of cell by use of a fluorometric/colorimetric growth indicator based on detection of metabolic activity. Specifically, the alamar blue system incorporates an oxidation-reduction (REDOX) indicator that both fluoresces and changes color in response to chemical reduction of growth medium resulting from cell growth. As cells being tested grow, innate metabolic activity results in a chemical reduction of the system. Continued growth maintains a reduced environment while inhibition of growth maintains an oxidized environment. Reduction related to growth causes the REDOX indicator to change from oxidized (non-fluorescent, blue) form to reduced (fluorescent, red) form.
(§3) Cell viability was determined by Alamar Blue assay in accordance with the manufacturer's protocols.

[3] = tested on: colon cancer cells C2BBE1; test: Cancer cell growth, Alamar Blue assay, C2BBE1; type: cell-based; settings: C2BBE1, 48 hr culture
Description: as §1, §2, §3

[4] = tested on: cervical cancer cells Hela; test: Cancer cell growth, Alamar Blue assay, HeLa; type: cell-based; settings: 48 hr culture
Description: as §1, §2, §3

breast cancer cells MCF7 = test: Cancer cell growth, Alamar Blue assay, MCF7; type: cell-based; settings: MCF7, 48 hr culture
Description: as §1, §2, §3

A375.S2 cells = test: Cancer cell growth, Alamar Blue assay, A375; type: cell-based; settings: A375, 48 hr culture
Description: as §1, §2, §3

[5] = tested on: pancreatic cancer cells BxPC3; test: Cancer cell growth, Alamar Blue assay, BxPC3; type: cell-based; settings: BxPC3, 48 hr culture
Description: as §1, §2, §3

hepatoma cells Huh7 = test: Cancer cell growth, Alamar Blue assay, Huh7; type: cell-based; settings: Huh7, 48 hr culture
Description: as §1, §2, §3

Compound	Percentage of drugs remained un-degraded [1]	pIC50 (lung cancer cells A549; Homo sapiens)	pIC50 ([3]; Homo sapiens)	pIC50 ([4]; Homo sapiens)	pIC50 (breast cancer cells MCF7; Homo sapiens)	pIC50 (A375.S2 cells; A375-S2)	pIC50 ([5]; Homo sapiens, BXPC-3)	pIC50 (hepatoma cells Huh7; Homo sapiens, Huh-7)	Solubility of the anti-cancer drug [2]	pIC50 (lung cancer cells A549)	pIC50 [3]	pIC50 [4]	pIC50 (breast cancer cells MCF7)	pIC50 (A375.S2 cells)	pIC50 [5]	pIC50 (hepatoma cells Huh7)
CC(C)C[C@H](NC(=O)[C@H](CCc1ccccc1)NC(=O)CN1CCOCC1)C(=O)N[C@@H](Cc1ccccc1)C(=O)N[C@@H](CC(C)C)C(=O)[C@@]1(C)CO1 [Carfilzomib]	48.5%	5.74	5.80	5.89	7.00	3.12	7.10	6.15								
N.N.[Cl][Pt][Cl] [Cisplatin]										5.19	4.96	5.51	4.48	5.04	5.32	5.20
CC(=O)O[C@H]1C(=O)[C@@]2(C)[C@H]([C@H](OC(=O)c3ccccc3)[C@]3(O)C[C@H](OC(=O)[C@H](O)[C@@H](NC(=O)c4ccccc4)c4ccccc4)C(C)=C1C3(C)C)[C@]1(OC(C)=O)CO[C@@H]1C[C@@H]2O [Paclitaxel]									5.6 mg/L							

More lines, main results first:

Percentage of drugs remained un-degraded [1]	pIC50 (lung cancer cells A549; Homo sapiens)	pIC50 ([3]; Homo sapiens)	pIC50 ([4]; Homo sapiens)	pIC50 (breast cancer cells MCF7; Homo sapiens)	pIC50 (A375.S2 cells; A375-S2)	pIC50 ([5]; Homo sapiens, BXPC-3)	pIC50 (hepatoma cells Huh7; Homo sapiens, Huh-7)	Compound	Solubility of the anti-cancer drug [2]	pIC50 (lung cancer cells A549)	pIC50 [3]	pIC50 [4]	pIC50 (breast cancer cells MCF7)	pIC50 (A375.S2 cells)	pIC50 [5]	pIC50 (hepatoma cells Huh7)
58.8%	4.77	3.77	4.03	4.32	4.18	4.29	6.00	Nc1ccn([C@@H]2O[C@H](CO)[C@@H](O)C2(F)F)c(=O)n1 [Gemcitabine]	51,000 mg/L							
69.5%	7.40	4.89	5.77	5.70	6.12	6.24	6.31	COc1cccc2c1C(=O)c1c(O)c3c(c(O)c1C2=O)C[C@@](O)(C(=O)CO)C[C@@H]3O[C@H]1C[C@H](N)[C@H](O)[C@H](C)O1 [Doxorubicin]	2,600 mg/L							
83.6%	6.00	4.00	6.17	5.20	4.54	5.33	8.00	CC(=O)O[C@@]12CO[C@@H]1C[C@H](O)[C@@]1(C)C(=O)[C@H](O)C3=C(C)[C@@H](OC(=O)[C@H](O)[C@@H](NC(=O)OC(C)(C)C)c4ccccc4)C[C@@](O)([C@@H](OC(=O)c4ccccc4)[C@H]21)C3(C)C [Docetaxel]	0.27 mg/L							
